These results are taken from patent US20250205176A1, “SOLID COMPOSITION CONTAINING FORM II-TYPE CRYSTAL OF REDUCED COENZYME Q10” (KANEKA CORPORATION, priority 2022, published 2025).

The data set is described as follows: Reference Example: half-life period and stabilization degree from QH residual rate after 14 days storage. It is filed as physicochemical. Particulars: for Half-life Period: number of days required for the QH residual rate to reach 50%, from storage at 25° C. and 60% RH for 14 days. As for the experimental part:
The reduced coenzyme Q10 Form I crystal (Form I-crystal), the particulate solid composition produced using the reduced coenzyme Q10 Form I crystal in the same manner as in Comparative Example 1 (Form I-stabilized composition), the reduced coenzyme Q10 Form II crystal (Form II-crystal), and the particulate solid composition produced using the reduced coenzyme Q10 Form II crystal in the same manner as in Example 1 (A-1) (Form II-stabilized composition) were stored at 25° C. and 60% RH for 14 days. From the QH residual rate after storage, the half-life period, which is the number of days required for the QH residual rate to reach 50%, and the stabilization degree, which is the ratio of the half-life period of the stabilized composition to the half-life period of each crystal, were determined and shown in Table 17.

For the compound `COc1c(O)c(C)c(C/C=C(\C)CC/C=C(\C)CC/C=C(\C)CC/C=C(\C)CC/C=C(\C)CC/C=C(\C)CC/C=C(\C)CC/C=C(\C)CC/C=C(\C)CCC=C(C)C)c(O)c1OC` [Form II - crystal, reduced coenzyme Q10], the “Half-life Period” value is 189 days. Moreover, the “stability relative to the Form I crystal” value (25° C. and 60% RH) was found to be 14 times.

On to `COc1c(O)c(C)c(C/C=C(\C)CC/C=C(\C)CC/C=C(\C)CC/C=C(\C)CC/C=C(\C)CC/C=C(\C)CC/C=C(\C)CC/C=C(\C)CC/C=C(\C)CCC=C(C)C)c(O)c1OC` [Form I - crystal, reduced coenzyme Q10], for which the “Half-life Period” value came to 14 days.
